The test system of the first assay is Brassica napus. The assay is described as follows: Post-emergence herbicidal activity against Brassica napus (oilseed rape) after 10 days. It counts as functional.
`COCCOC(=O)/C(C#N)=C(\NCc1ccc(OCc2cnc(Cl)s2)c(OC)c1)C(C)C`: the LD50 is 101.62 g/ha and the LD90 is reported as 251.01 g/ha.
With `CC/C(NCc1ccc(OCc2cnc(Cl)s2)cc1)=C(\C#N)C(=O)OCCOC`, the LD50 came to 205.19 g/ha and the LD90 stood at 640.88 g/ha.
`CCOCCOC(=O)/C(C#N)=C(/CC)NCc1ccc(OCc2cnc(Cl)s2)c(OC)c1` registered an LD50 of 196.53 g/ha and an LD90 of 862.13 g/ha.

In another assay the test system is Brassica napus. The assay is described as follows: Post-emergence herbicidal activity against Brassica napus (oilseed rape) at 375 g/ha after 10 days. It counts as functional.
`COCCOC(=O)/C(C#N)=C(\NCc1ccc(OCc2cnc(Cl)s2)c(OC)c1)C(C)C` yielded an Activity of 62.4%.
Consider `CCOCCOC(=O)/C(C#N)=C(/CC)NCc1ccc(OCc2cnc(Cl)s2)c(OC)c1`, for which the Activity was 41.2%.

The next assay has as its system Brassica napus. The assay is described as follows: Post-emergence herbicidal activity against Brassica napus (oilseed rape) at 750 g/ha after 10 days. It counts as functional.
`COCCOC(=O)/C(C#N)=C(\NCc1ccc(OCc2cnc(Cl)s2)c(OC)c1)C(C)C`: the Activity came out at 94.1%.
In turn, `CCOCCOC(=O)/C(C#N)=C(/CC)NCc1ccc(OCc2cnc(Cl)s2)c(OC)c1` had an Activity of 74.6%.

In a further assay the test system is Amaranthus retroflexus. The assay is described as follows: Post-emergence herbicidal activity against Amaranthus retroflexus at 375 g/ha after 10 days. It counts as functional.
`COCCOC(=O)/C(C#N)=C(\NCc1ccc(OCc2cnc(Cl)s2)c(OC)c1)C(C)C` came in with an Activity of 73.6%.
`CCOCCOC(=O)/C(C#N)=C(/CC)NCc1ccc(OCc2cnc(Cl)s2)c(OC)c1` registered an Activity of 21%.

For a further assay, the system named is Amaranthus retroflexus. The assay is described as follows: Post-emergence herbicidal activity against Amaranthus retroflexus at 750 g/ha after 10 days. It counts as functional.
Molecule `COCCOC(=O)/C(C#N)=C(\NCc1ccc(OCc2cnc(Cl)s2)c(OC)c1)C(C)C` showed an Activity of 89.8%.
`CCOCCOC(=O)/C(C#N)=C(/CC)NCc1ccc(OCc2cnc(Cl)s2)c(OC)c1` displayed an Activity of 30.9%.

For a further assay, the system named is Amaranthus retroflexus. The assay is described as follows: Pre-emergence herbicidal activity against Amaranthus retroflexus at 1500 g/ha after 10 days. It counts as functional.
`COCCOC(=O)/C(C#N)=C(/C)NCc1ccc(OCc2cnc(Cl)s2)cc1` registered an Activity of 0%.
For the molecule `COCCOC(=O)/C(C#N)=C(/C)NCc1ccc(OCc2cnc(Cl)s2)c(OC)c1`, the Activity is reported as 0%.
With `CCOCCOC(=O)/C(C#N)=C(/C)NCc1ccc(OCc2cnc(Cl)s2)cc1`, the Activity turned out to be 0%.
On to `COCCOC(=O)/C(C#N)=C(\NCc1ccc(OCc2cnc(Cl)s2)cc1)SC`, for which the Activity was determined as 0%.
Same read-out and setting: as for `COCCOC(=O)/C(C#N)=C(\NCc1ccc(OCc2cnc(Cl)s2)c(OC)c1)C(C)C`, the figure is 0%; as for `COCCOC(=O)/C(C#N)=C(\NCc1ccc(OCc2cnc(Cl)s2)c(OC)c1)SC`, 2.7%.
`CC/C(NCc1ccc(OCc2cnc(Cl)s2)cc1)=C(\C#N)C(=O)OCCOC`: the Activity was found to be 0%.
As for `CCOCCOC(=O)/C(C#N)=C(/CC)NCc1ccc(OCc2cnc(Cl)s2)c(OC)c1`, the Activity stood at 10%.
Same read-out and setting: to `CCOCCOC(=O)/C(C#N)=C(/C)NCc1ccc(OCc2cnc(Cl)s2)c(OC)c1` belongs 5%.

Another assay has as its system Medicago sativa. The assay is described as follows: Pre-emergence herbicidal activity against Medicago sativa (alfalfa) at 1500 g/ha after 10 days. It counts as functional.
`COCCOC(=O)/C(C#N)=C(/C)NCc1ccc(OCc2cnc(Cl)s2)cc1` came in with an Activity of 0%.
The same measure, in the same setting: to `COCCOC(=O)/C(C#N)=C(/C)NCc1ccc(OCc2cnc(Cl)s2)c(OC)c1` belongs 0%; to `CCOCCOC(=O)/C(C#N)=C(/C)NCc1ccc(OCc2cnc(Cl)s2)cc1`, 0%; to `COCCOC(=O)/C(C#N)=C(\NCc1ccc(OCc2cnc(Cl)s2)cc1)SC`, 0%.
`COCCOC(=O)/C(C#N)=C(\NCc1ccc(OCc2cnc(Cl)s2)c(OC)c1)C(C)C`: the Activity amounted to 42.9%.
Take `COCCOC(=O)/C(C#N)=C(\NCc1ccc(OCc2cnc(Cl)s2)c(OC)c1)SC`: the Activity amounted to 50.6%.
As for `CC/C(NCc1ccc(OCc2cnc(Cl)s2)cc1)=C(\C#N)C(=O)OCCOC`, the Activity is given as 0%.
On the same count and under the same terms, as for `CCOCCOC(=O)/C(C#N)=C(/CC)NCc1ccc(OCc2cnc(Cl)s2)c(OC)c1`, the figure is 0%; as for `CCOCCOC(=O)/C(C#N)=C(/C)NCc1ccc(OCc2cnc(Cl)s2)c(OC)c1`, 30.6%.

For a further assay, the system named is Brassica napus. The assay is described as follows: Pre-emergence herbicidal activity against Brassica napus (oilseed rape) at 1500 g/ha after 10 days. It counts as functional.
In turn, `COCCOC(=O)/C(C#N)=C(/C)NCc1ccc(OCc2cnc(Cl)s2)cc1` displayed an Activity of 0%.
`COCCOC(=O)/C(C#N)=C(/C)NCc1ccc(OCc2cnc(Cl)s2)c(OC)c1` returned an Activity of 15%.
Same read-out and setting: as for `CCOCCOC(=O)/C(C#N)=C(/C)NCc1ccc(OCc2cnc(Cl)s2)cc1`, the figure is 0%.
Regarding `COCCOC(=O)/C(C#N)=C(\NCc1ccc(OCc2cnc(Cl)s2)cc1)SC`, the Activity is 0%.
As to `COCCOC(=O)/C(C#N)=C(\NCc1ccc(OCc2cnc(Cl)s2)c(OC)c1)C(C)C`, the Activity stood at 41.7%.
`COCCOC(=O)/C(C#N)=C(\NCc1ccc(OCc2cnc(Cl)s2)c(OC)c1)SC` displayed an Activity of 0%.
On the same count and under the same terms, as for `CC/C(NCc1ccc(OCc2cnc(Cl)s2)cc1)=C(\C#N)C(=O)OCCOC`, the figure is 0%.
Same read-out and setting: to `CCOCCOC(=O)/C(C#N)=C(/CC)NCc1ccc(OCc2cnc(Cl)s2)c(OC)c1` belongs 5%.
In turn, `CCOCCOC(=O)/C(C#N)=C(/C)NCc1ccc(OCc2cnc(Cl)s2)c(OC)c1` had an Activity of 0%.

The subject of another assay is Amaranthus retroflexus. The assay is described as follows: Post-emergence herbicidal activity against Amaranthus retroflexus at 1500 g/ha after 10 days. It counts as functional.
`COCCOC(=O)/C(C#N)=C(/C)NCc1ccc(OCc2cnc(Cl)s2)cc1`: the Activity is 0%.
Regarding `COCCOC(=O)/C(C#N)=C(/C)NCc1ccc(OCc2cnc(Cl)s2)c(OC)c1`, the Activity is 92.2%.
In turn, `CCOCCOC(=O)/C(C#N)=C(/C)NCc1ccc(OCc2cnc(Cl)s2)cc1` came in with an Activity of 32.6%.
With `COCCOC(=O)/C(C#N)=C(\NCc1ccc(OCc2cnc(Cl)s2)cc1)SC`, the Activity was 71.3%.
The molecule `COCCOC(=O)/C(C#N)=C(\NCc1ccc(OCc2cnc(Cl)s2)c(OC)c1)C(C)C` returned an Activity of 100%.
The molecule `COCCOC(=O)/C(C#N)=C(\NCc1ccc(OCc2cnc(Cl)s2)c(OC)c1)SC` displayed an Activity of 89.6%.
The same measure, in the same setting: as for `CC/C(NCc1ccc(OCc2cnc(Cl)s2)cc1)=C(\C#N)C(=O)OCCOC`, the figure is 0%.
`CCOCCOC(=O)/C(C#N)=C(/CC)NCc1ccc(OCc2cnc(Cl)s2)c(OC)c1` came in with an Activity of 100%.
`CCOCCOC(=O)/C(C#N)=C(/C)NCc1ccc(OCc2cnc(Cl)s2)c(OC)c1` showed an Activity of 89.6%.

For the next assay, the system named is Brassica napus. The assay is described as follows: Post-emergence herbicidal activity against Brassica napus (oilseed rape) at 1500 g/ha after 10 days. It counts as functional.
`COCCOC(=O)/C(C#N)=C(/C)NCc1ccc(OCc2cnc(Cl)s2)cc1` had an Activity of 98.5%.
In turn, `COCCOC(=O)/C(C#N)=C(/C)NCc1ccc(OCc2cnc(Cl)s2)c(OC)c1` showed an Activity of 84.6%.
The same measure, in the same setting: to `CCOCCOC(=O)/C(C#N)=C(/C)NCc1ccc(OCc2cnc(Cl)s2)cc1` belongs 100%; to `COCCOC(=O)/C(C#N)=C(\NCc1ccc(OCc2cnc(Cl)s2)cc1)SC`, 100%.
Molecule `COCCOC(=O)/C(C#N)=C(\NCc1ccc(OCc2cnc(Cl)s2)c(OC)c1)C(C)C` had an Activity of 100%.
Molecule `COCCOC(=O)/C(C#N)=C(\NCc1ccc(OCc2cnc(Cl)s2)c(OC)c1)SC` displayed an Activity of 83.6%.
`CC/C(NCc1ccc(OCc2cnc(Cl)s2)cc1)=C(\C#N)C(=O)OCCOC` had an Activity of 100%.
The molecule `CCOCCOC(=O)/C(C#N)=C(/CC)NCc1ccc(OCc2cnc(Cl)s2)c(OC)c1` registered an Activity of 98.3%.
In turn, `CCOCCOC(=O)/C(C#N)=C(/C)NCc1ccc(OCc2cnc(Cl)s2)c(OC)c1` displayed an Activity of 94.2%.

A further assay relates to Medicago sativa. The assay is described as follows: Post-emergence herbicidal activity against Medicago sativa (alfalfa) at 1500 g/ha after 10 days. It counts as functional.
`COCCOC(=O)/C(C#N)=C(/C)NCc1ccc(OCc2cnc(Cl)s2)cc1` gave an Activity of 0%.
Turning to `COCCOC(=O)/C(C#N)=C(/C)NCc1ccc(OCc2cnc(Cl)s2)c(OC)c1`, the Activity came to 56.5%.
For the molecule `CCOCCOC(=O)/C(C#N)=C(/C)NCc1ccc(OCc2cnc(Cl)s2)cc1`, the Activity came out at 0%.
For the molecule `COCCOC(=O)/C(C#N)=C(\NCc1ccc(OCc2cnc(Cl)s2)cc1)SC`, the Activity is on record as 30%.
Molecule `COCCOC(=O)/C(C#N)=C(\NCc1ccc(OCc2cnc(Cl)s2)c(OC)c1)C(C)C` yielded an Activity of 71.1%.
The molecule `COCCOC(=O)/C(C#N)=C(\NCc1ccc(OCc2cnc(Cl)s2)c(OC)c1)SC` returned an Activity of 66.1%.
`CC/C(NCc1ccc(OCc2cnc(Cl)s2)cc1)=C(\C#N)C(=O)OCCOC`: the Activity worked out at 0%.
In turn, `CCOCCOC(=O)/C(C#N)=C(/CC)NCc1ccc(OCc2cnc(Cl)s2)c(OC)c1` came in with an Activity of 41.9%.
Turning to `CCOCCOC(=O)/C(C#N)=C(/C)NCc1ccc(OCc2cnc(Cl)s2)c(OC)c1`, the Activity is given as 30%.

Another assay concerns the target Photosystem II protein D1 (Spinacia oleracea) (UniProt P69560). The assay is described as follows: Inhibition of photosystem II in Spinacia oleracea (spinach) chloroplast assessed as inhibition of hill reaction at 1 ug/ml relative to control.
Broadly, the inhibition is the relative decrease from the control value, in per cent. For the molecule `COCCOC(=O)/C(C#N)=C(/C)NCc1ccc(OCc2cnc(Cl)s2)cc1`, the inhibition was determined as 65.2%.
With `COCCOC(=O)/C(C#N)=C(/C)NCc1ccc(OCc2cnc(Cl)s2)c(OC)c1`, the inhibition was determined as 42.7%.
Consider `CCOCCOC(=O)/C(C#N)=C(/C)NCc1ccc(OCc2cnc(Cl)s2)cc1`, for which the inhibition was 56.5%.
Turning to `COCCOC(=O)/C(C#N)=C(\NCc1ccc(OCc2cnc(Cl)s2)cc1)SC`, the inhibition was found to be 80.9%.
Consider `COCCOC(=O)/C(C#N)=C(\NCc1ccc(OCc2cnc(Cl)s2)c(OC)c1)C(C)C`, for which the inhibition was found to be 80.4%.
Take `COCCOC(=O)/C(C#N)=C(\NCc1ccc(OCc2cnc(Cl)s2)c(OC)c1)SC`: the inhibition amounted to 61.2%.
For `CC/C(NCc1ccc(OCc2cnc(Cl)s2)cc1)=C(\C#N)C(=O)OCCOC`, the inhibition amounted to 59.6%.
For `CCOCCOC(=O)/C(C#N)=C(/CC)NCc1ccc(OCc2cnc(Cl)s2)c(OC)c1`, the inhibition is 71.3%.
As to `CCOCCOC(=O)/C(C#N)=C(/C)NCc1ccc(OCc2cnc(Cl)s2)c(OC)c1`, the inhibition was 68.5%.
